Literature values as cited in patent US20030100493A1, “Sublingual use of inhibitors in the biosynthesis of cholesterol” (priority 2001, published 2003).

What was measured:
[1] = in vivo
[2] = sublingual; coronary patient
cholesterol synthesis = details: compared with the other statins

Structure (SMILES) | passage of the blood brain barrier [1] | also measured
CC[C@H](C)C(=O)O[C@H]1C[C@H](O)C=C2C=C[C@H](C)[C@H](CC[C@@H](O)C[C@@H](O)CC(=O)O)[C@H]21 [Pravastatin] | do not pass the blood brain barrier | 
CC(C)n1c(/C=C/C(O)CC(O)CC(=O)O)c(-c2ccc(F)cc2)c2ccccc21 (stereo not shown) [Fluvastatin] | do not pass the blood brain barrier | 
O=[N+]([O-])OCC(CO[N+](=O)[O-])O[N+](=O)[O-] [Nitroglycerin] |  | duration of effect (short lasting effect) [2]: five to ten
CC(C)c1nc(N(C)S(C)(=O)=O)nc(-c2ccc(F)cc2)c1/C=C/[C@@H](O)C[C@@H](O)CC(=O)O [Rosuvastatin] |  | potency as an inhibitor of cholesterol synthesis (cholesterol synthesis): significantly higher potency
